Consider three molecules from US8088951B2, “Epigenetic mechanisms re-establish access to long-term memory after neuronal loss” (Massachusetts Institute of Technology, priority 2006, dated 2012).

The subject of assay [1] is lys9lys 14 on histone 3 and lys5 on histone 4. Kind of assay: Histone acetylation in brain lysates of treated mice. The format is in vivo. The settings on record: compared to saline treated mice. The method, then: Immunoblotting and staining: Lysates for immunoblotting were prepared as described by Fischer et al. (3). To isolate histones, brain tissue was homogenized in TX-buffer (50 mM Tris HCL, 150 mM NACL, 2 mM EDTA, 1% Triton-100) and incubated at 4° C. for 15 min prior to centrifugation at 200 rpm for 10 min. After a wash-step in TX-buffer the pellet was dissolved in TX-buffer containing 0.2M HCl and incubated on ice for 30 min, before a second centrifugation at 10000 rpm for 10 min. The supernatant was either dialysed or directly used for immunoblotting. Antibodies were used in 1:1000 concentrations. All antibodies detecting histones and anti-PSD-95 were form Upstate (Lake Placid, N.Y.). Anti-synaptophysin (SVP38) was from Sigma. Anti-neuronal nuclei (neuN) and anti-growth associated protein (Gap43) were from Chemicon (Temecula, Calif.) and anti-N-cadherin, anti-β-catenin were from Santa Cruz (Santa Cruz, Calif.). Immunostaining was performed as described by Fischer et al. (3). Antibodies mentioned above were used in a 1:500 dilution. Anti-MAP-2 antibody (Sigma) was used in a 1:200 dilution.
(§1) The effects of SAHA and MS-275, relative to sodium butyrate (SB), on the hippocampus dependent associative learning in wildtype mice.

In a further assay the test system is c-fos. The assay is described as follows: c-fos positive cells after fear conditioning training. Format: in vivo, mice. Conditions: compared to saline treated group. The text has this:
(§2) HDAC inhibitors regulate neuronal activity and neurogenesis in dentate gyrus. […] Thus, activity induced c-fos expression may also be used to evaluate the effect of HDAC inhibitors on hippocampus dependent learning. FIG. 17d is a bar graph depicting the significant enhancement by SAHA.

The subject of the next assay is dentate gyrus. Kind of assay: Neurogenesis in dentate gyrus (BrdU, DCX). Set-up: species or system mice. The settings on record: mouse, in vivo.
Excerpt: as §2

The next assay relates to C57BL/6J mice. Kind of assay: Contextual fear conditioning (associative learning) in wild type mice. Format: in vivo. Conditions: for associative learning, contextual fear conditioning paradigm: wildtype mice, chronic treatment for 10-21 days.
Excerpt: Learning tests: All behavioral testing is described in Fischer et al. (3).
Mechanism underlying EE. Other than a few genes involved in synaptic function, relatively little is known about the mechanism underlying EE (12-14). Since histone acetylation, an epigenetic mechanism regulating gene expression via chromatin remodeling, has recently been implicated in synaptic plasticity and learning behavior (15-18), the induction of a transcriptional program by EE that leads to activation of plasticity genes was evaluated. Wild type mice were subjected to EE and hippocampal and cortical brain lysates were obtained 3, 24 h or 2 weeks later (n=3/group) by acid extraction and probed with antibodies detecting histone-tail modification that indicate active chromatin. Increases in hippocampal H3 (K-9, K14) and H4 (K-5) and in cortical H3 (K-9) and H4 (K-5) acetylation were observed. […] No changes in H4 acetylation were observed when the Ac-H4 (K,8,12,16) antibody was used, which is likely due to the fact that H4-K16 is a marker of condensed chromatin. EE induced hippocampal and cortical histone 3 (H3) and histone 4 (H4) acetylation and […] as soon as 3 hours after treatment (FIGS. 3a, b). […] To investigate whether inhibition of HDACs mimics the effects of EE, SB was administered daily [ip] into wild type mice for 4 weeks (FIG. 3c). […] Two days after the last injection mice were trained in the fear conditioning paradigm. […] Locomotor activity or basal anxiety was not altered in SB-injected mice (FIG. 8c).
The effect of sodiumbutyrate injection on learning, basal anxiety, explorative behavior and brain plasticity. C57BL/6J mice were subjected to fear conditioning and injected intraperitoneally [ip] with 1.2 g/kg sodiumbutyrate (SB, n=8) or saline (vehicle; n=8) immediately afterwards. […] C57BL/6J mice were implanted with microcannulae into the lateral brain ventricles (icv) and injected with either 100 ng SB, 50 ng TSA or vehicle immediately after fear conditioning (n=8/group). […] C57BL/6J were daily injected [ip] with SB or saline (n=8/group) for 4 weeks before all mice were subjected to the elevated plus maze and open field test. […] Immunoblots were quantified relative to the optical density of the vehicle-group (set to 1). […] The analysis was performed as described under FIG. 1g.
as §1
Mice were injected 10 days with either 5 mg/kg of MS275 or 25 mg/kg of UW_WT-I—06 or UW_WT-I—05 before training and memory tests as described above. […] Andorfer, C. et al. Cell-cycle reentry and cell death in transgenic mice expressing nonmutant human tau isoforms. J neurosci 25, 5446-5454 (2005). • 2. Santacruz, K. et al. Tau suppression in a neurodegenerative mouse model improves memory function. Science 309, 476-481 (2005). • 3. Fischer, A., Sananbenesi, F., Pang, P. T., Lu, B. & Tsai, L. H. Opposing roles of transient and prolonged expression of p25 in synaptic plasticity and hippocampus-dependent memory. Neuron 48, 825-838 (2005). • 4. Cruz, J. C. & Tsai, L. H. Jekyll and Hyde kinase: roles for Cdk5 in brain development and disease. Curr Opin Neurobiol. 14, 390-394 (2004). • 5. Cruz, J. C., Tseng, H. C., Goldman, J. A., Shih, H. & Tsai, L. H. Aberrant Cdk5 activation by p25 triggers pathological events leading to neurodegeneration and neurofibrillary tangles. Neuron 40, 471-83 (2003). • 6. Nithianantharajah, J. & Hannan, A. J. Enriched environments, experience-dependent plasticity and disorders of the nervous system. Nat Rev Neurosci 7, 697-709 (2006). • 7. Kim, J. J. & Fanselow, M. S. Modality-specific retrograde amnesia of fear. Science 256, 675-7 (1992). • 8. Gilmore, E. C. & Herrup, K. Neocortical cell migration: GABAergic neurons and cells in layers I and VI move in a cyclin-dependent kinase 5-independent manner. J Neurosci 21, 9690-700 (2001). • 9. […]

Turning to `O=C(CCCCCCC(=O)Nc1ccccc1)NO` [SAHA, suberoylanilide hydroxamic acid], the “acetylation of lys9lys 14 on histone 3 and lys5 on histone 4 in brain lysates” value in assay [1] is “increased acetylation of lys9lys 14 on histone 3 and lys5 on histone 4”. For the same molecule, in the assay with c-fos, the “number of c-fos positive cells” value was “higher number of c-fos positive cells”. Moreover, in the assay with dentate gyrus, the “BrdU positive cells in the subgranule zone of the dentate gyrus” value is given as “increased BrdU positive cells” and the “DCX (marker for newly generated neurons) labeled cells in dentate gyrus” value is reported as “labeled more cells”. Further, the “associative learning, contextual fear conditioning paradigm” value in the assay on C57BL/6J mice is “more potent than SB in facilitating associative learning”.

Regarding `CC(/C=C/C(=O)NO)=C\[C@@H](C)C(=O)c1ccc(N(C)C)cc1` [TSA, trichostatin A], the “freezing behavior during the memory test” value in the assay on C57BL/6J mice (icv 100 ng SB or 50 ng TSA immediately after fear conditioning, test 24 h later, P<0.0001) is “more freezing behavior than vehicle injected mice”. Also, the associative learning result in the assay with C57BL/6J mice (wild type mice, intraperitoneal [ip] and intracerebroventricular [icv] injections) is listed as “significantly facilitated associative learning”.

With `Nc1ccccc1NC(=O)c1ccc(CNC(=O)OCc2cccnc2)cc1` [MS-275], the “acetylation of lys9lys 14 on histone 3 and lys5 on histone 4 in brain lysates” value in assay [1] was “increased acetylation of lys9lys 14 on histone 3 and lys5 on histone 4”. In the assay on c-fos, the “number of c-fos positive cells” value is on record as “lower number of c-fos positive cells”. The “DCX (marker for newly generated neurons) labeled cells in dentate gyrus” value with dentate gyrus is “not”. In addition, the “associative learning, contextual fear conditioning paradigm” value in the assay with C57BL/6J mice is on record as “does not facilitate associative learning”.
